Data published in patent US20240246981A1, “[…] DERIVATIVES AS INHIBITORS OF […]-PEPTIDE CYCLOTRANSFERASE AND […]-PEPTIDE CYCLOTRANSFERASE LIKE PROTEIN” (Boehringer Ingelheim International GmbH, priority 2022, published 2024).
pIC50: −log10 of the molar value. Like-named read-outs stand apart in the source and are kept apart here.

Legend:
[1] = target: QPCTL (Homo sapiens (Human), UniProt Q9NXS2); assay: Assay A: biochemical QPCTL activity assay (MALDI-TOF MS); conditions: read-out: Inhibition of QPCTL: IC50
Method in brief: (§1)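 Compounds preincubated 10 min at 24 °C with enzyme in 20 mM Tris pH 7.5, 0.1 mM TCEP, 0.01% BSA, 0.001% Tween20; CD47 peptide substrate (final 10 μM for QPCTL, 20 μM for QPCT) reacted 40 min at 24 °C. Pyroglutamate product read by MALDI-TOF MS versus internal standard, normalized to controls; four-parameter fit.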

[2] = test system: Caco-2 cells; assay: Assay C: permeability in CACO-2 cells; assay type: in vitro ADME; conditions: prior art compounds, Table 8; for Permeability A-B: Caco-2, apical to basolateral; for efflux ratio: Caco-2
Method in brief: (§2)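 Compound in transport solution applied to apical or basolateral donor side for A-B or B-A permeability, 3 filter replicates. Donor sampled at start and end, receiver at intervals up to 2 hours with volume replaced; concentrations by HPLC-MS/MS or scintillation counting.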

[3] = test system: SIRPα signalling induced by Raji cells; assay: Assay B: SIRPα signalling assay using Raji cells; assay type: cell-based, human
Method in brief: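 SIRPα signalling induced by Raji cells in a PathHunter reporter line, read as β-galactosidase complementation luminescence. Detection reagent 1 added for 15 min, then reagent 2 for 60 min in the dark, both at room temperature.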

[4] = test system: SIRPα signalling induced by A549 cells; assay: Assay B: SIRPα signalling assay using A549 cells; assay type: cell-based, human
Method in brief: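 5000 Raji or A549 cells were cultured 48 h at 37 °C with serially diluted compound (DMSO), then 15000 Jurkat PathHunter SIRPα reporter cells were added for 5 h. Beta-galactosidase luminescence was developed at RT, and IC50 obtained by 4-parameter sigmoidal fit.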

[5] = target: QPCT (Homo sapiens (Human), UniProt Q16769); assay: Assay A: biochemical QPCT activity assay (MALDI-TOF MS); conditions: read-out: Inhibition of QPCT: IC50
Method in brief: as §1

[6] = target: human glutaminyl cyclase (hQC) (Homo sapiens (Human), UniProt Q16769); conditions: J-S, NCB 2015 supplementary information; read-out: IC50 on isolated hQC; cited from earlier work
[7] = Assay C: permeability in CACO-2 cells; assay type: in vitro ADME; conditions: human, pH 7.2; for Papp A→B / efflux ratio: compounds of the invention, Table 7
Method in brief: as §2

[8] = target: glutamine acyl cyclase isoenzyme (Homo sapiens (Human), UniProt Q9NXS2); conditions: given in CN 114874186; cited from earlier work
[9] = prior art compounds, Table 5, read-out: Inhibition of SIRPα signalling induced by Raji cells: IC50
[10] = prior art compounds, Table 5, read-out: Inhibition of SIRPα signalling induced by A549 cells: IC50
[11] = compounds of the invention, Table 2
[12] = Homo sapiens, compounds of the invention, Table 4, read-out: Inhibition of SIRα signalling induced by Raji cells: IC50
[13] = Homo sapiens, prior art compounds, Table 5, read-out: Inhibition of SIRPα signalling induced by Raji cells: IC50
[14] = Homo sapiens, compounds of the invention, Table 4, read-out: Inhibition of SIRα signalling induced by A549 cells: IC50
[15] = Homo sapiens, prior art compounds, Table 5, read-out: Inhibition of SIRPα signalling induced by A549 cells: IC50

Chain of QPCT (Q16769 29-361): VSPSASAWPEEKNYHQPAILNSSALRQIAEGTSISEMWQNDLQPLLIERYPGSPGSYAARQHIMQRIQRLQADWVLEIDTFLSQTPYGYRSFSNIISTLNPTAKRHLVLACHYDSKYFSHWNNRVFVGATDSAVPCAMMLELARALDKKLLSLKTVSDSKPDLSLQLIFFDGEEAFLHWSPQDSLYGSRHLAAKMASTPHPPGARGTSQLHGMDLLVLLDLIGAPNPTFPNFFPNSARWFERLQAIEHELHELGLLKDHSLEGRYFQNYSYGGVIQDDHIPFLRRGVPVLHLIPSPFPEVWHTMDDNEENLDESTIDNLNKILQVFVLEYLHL
Chain of QPCTL (Q9NXS2 whole entry): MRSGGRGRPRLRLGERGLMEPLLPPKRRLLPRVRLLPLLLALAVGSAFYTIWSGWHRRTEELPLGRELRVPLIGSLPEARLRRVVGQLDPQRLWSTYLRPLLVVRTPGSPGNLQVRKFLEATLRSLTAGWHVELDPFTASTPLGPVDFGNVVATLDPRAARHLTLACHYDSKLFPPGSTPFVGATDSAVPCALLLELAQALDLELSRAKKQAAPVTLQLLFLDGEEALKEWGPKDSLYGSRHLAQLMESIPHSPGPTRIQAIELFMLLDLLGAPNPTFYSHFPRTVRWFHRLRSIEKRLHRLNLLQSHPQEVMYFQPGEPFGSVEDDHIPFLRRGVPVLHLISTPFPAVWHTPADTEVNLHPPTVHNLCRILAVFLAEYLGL
Chain of human glutaminyl cyclase (hQC) (Q16769 29-361): as the sequence (Q16769 29-361) above
Chain of glutamine acyl cyclase isoenzyme (Q9NXS2 whole entry): as the sequence (Q9NXS2 whole entry) above

Structure (SMILES)	pIC50 ([1]; prior art compounds, Table 3)	Permeability A-B [2]	efflux ratio [2]	pIC50 [3, 9]	pIC50 [4, 10]	pIC50 ([5]; prior art compounds, Table 3)	pIC50 [1, 11]	Papp A→B ([7]; Caco-2, apical to basolateral) [×10⁻⁶ cm/s]	efflux ratio ([7]; Caco-2)	pIC50 [3, 12]	pIC50 [3, 13]	pIC50 [4, 14]	pIC50 [4, 15]	pIC50 [5, 11]	Papp A→B at 2 h ([7]; Caco-2, apical to basolateral, prior art compounds, Table 8) [×10⁻⁶ cm/s]	efflux ratio at 2 h ([7]; Caco-2, prior art compounds, Table 8)	pIC50 [6]	pIC50 [8]
Cn1cnnc1C1CCN(c2ncccc2-c2cccnc2)CC1 [SEN180, reference compound]		4.2 10^−6 cm/s		5.53	6.06	6.75											6.77	
COCCOc1ncc(-c2cccc(C#N)c2N2CCC(c3nncn3C)CC2)cn1 [compound 3, reference compound]		93 10^−6 cm/s	0.8				7.96	0.6	41.8	6.20	5.56	6.54	5.85	7.29				
Cn1cnnc1C1CCN(c2c(C#N)cccc2-c2cncc(-n3cccn3)c2)CC1 [compound 6, reference compound]	9.00	0.2 10^−6 cm/s	65.0				9.00	3.9	16.9	6.66	8.05	7.59	7.85	8.15				
Cn1cnnc1C1CCN(S(=O)(=O)c2cccc(Nc3ccc(OCc4ccccc4)nc3)c2)CC1 [compound 23, reference compound]	5.32					5.73					< 5.00		< 5.00		3.5	17.6		7.95

The next lines start with results.

pIC50 ([1]; prior art compounds, Table 3)	Permeability A-B [2]	efflux ratio [2]	pIC50 [3, 9]	pIC50 [4, 10]	pIC50 ([5]; prior art compounds, Table 3)	pIC50 [1, 11]	Papp A→B ([7]; Caco-2, apical to basolateral) [×10⁻⁶ cm/s]	efflux ratio ([7]; Caco-2)	pIC50 [3, 12]	pIC50 [3, 13]	pIC50 [4, 14]	pIC50 [4, 15]	pIC50 [5, 11]	Papp A→B at 2 h ([7]; Caco-2, apical to basolateral, prior art compounds, Table 8) [×10⁻⁶ cm/s]	efflux ratio at 2 h ([7]; Caco-2, prior art compounds, Table 8)	Structure (SMILES)	pIC50 [6]	pIC50 [8]
6.95	68 10^−6 cm/s	0.5	5.49	5.51	5.77											Nc1ncc(C2CCN(c3ncccc3-c3ccc(F)nc3)CC2)s1 [compound 1094, reference compound]		
7.89	73 10^−6 cm/s	1.0	5.66	6.59	6.59											Nc1nnc(C2CCN(c3ncccc3-c3ccc(F)nc3)CC2)s1 [compound 1095, reference compound]		
